Assay results from patent US20260078103A1, “ISOQUINOLONES AS PI3K INHIBITORS” (OnKure, Inc., priority 2022, published 2026).
Where two headings read alike, the source gives them in different places.

Columns and labels:
Assay type in all cases: cell-based
[1] = test system: phosphorylation of AKT (pAKT) in T47D cells expressing mutant PI3Ka (H1047R); assay: In vitro cell pAKT (Ser473) HTRF, T47D cells; settings: cellular pAKT, T47D cells, mutant PI3Ka (H1047R), 6 hours, read-out: Avg T-47D IC50
Method in brief: (§1)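 T47D cells (RPMI, 10% FBS, 0.2 units/mL insulin) or SKBR3 cells (McCoy's 5a, 10% FBS) were seeded onto 10-point compound dilutions and incubated 6 h at 37 °C. After lysis, pAKT was detected overnight by HTRF (Eu cryptate/d2). IC50 was fitted from % inhibition relative to 0.1% DMSO and 10 uM alpelisib controls.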

[2] = test system: T47D cells expressing mutant PI3Ka (H1047R); assay: In vitro cell proliferation, T47D cells (CellTiter-Glo); settings: inhibition of proliferation, read-out: Avg T-47D EC50
Method in brief: (§2)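 T47D cells in RPMI/10% FBS/insulin (0.2 units/mL) or SKBR3 in McCoys 5a/10% FBS, 1,500 cells/well, grown 72 h at 37 °C with 10-point compound dilutions. CellTiter-Glo luminescence; % inhibition normalised to 0.1% DMSO and 10 uM Alpelisib, EC50 from four-parameter curve fit.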

[3] = test system: phosphorylation of AKT (pAKT) in SKBR3 cells express WT PI3Ka; assay: In vitro cell pAKT (Ser473) HTRF, SKBR3 cells; settings: cellular pAKT
Method in brief: as §1

[4] = test system: SKBR3 cells express WT PI3Ka; assay: In vitro cell proliferation, SKBR3 cells (CellTiter-Glo); settings: inhibition of proliferation
Method in brief: as §2

IC50 ([1]; Homo sapiens, T47D, 6 h) [µM]	EC50 ([2]; Homo sapiens, T47D, 72 h) [µM]	IC50 ([3]; Homo sapiens, SK-BR-3, 6 h) [µM]	EC50 ([4]; Homo sapiens, SK-BR-3, 72 h) [µM]	IC50 [1] [µM]	EC50 ([2]; 72 hours) [µM]	IC50 ([3]; 6 hours) [µM]	EC50 ([4]; 72 hours) [µM]	Compound
0.001 to 0.5	0.5 to 2	> 15	> 15	–	–	–	–	Cc1cc(C(C)Nc2ccccc2C(=O)O)c2cc(N3CC(Cl)C3)n(C)c(=O)c2c1 (stereo not shown) [Example 55]
0.5 to 2	2 to 15	> 15	> 15	–	–	–	–	Cc1cc(C(C)Nc2ccccc2C(=O)O)c2cc(N3CC4(C3)CC(F)(F)C4)n(C)c(=O)c2c1 (stereo not shown) [Example 56]
0.5 to 2	0.5 to 2	> 15	> 15	–	–	–	–	Cc1cc(C(C)Nc2ccccc2C(=O)O)c2cc(N3CCN(C)CC3)n(C)c(=O)c2c1 (stereo not shown) [Example 59]
–	–	–	–	0.001 to 0.5	0.5 to 2	> 15	> 15	Cc1cc(C(C)Nc2ccccc2C(=O)O)c2cc(N3CCN(CC(F)(F)F)CC3)n(C)c(=O)c2c1 (stereo not shown) [Example 61]
0.001 to 0.5	2 to 15	> 15	> 15	–	–	–	–	Cc1cc(C(C)Nc2ccccc2C(=O)O)c2cc(N3CCC4(CCC4)CC3)n(C)c(=O)c2c1 (stereo not shown) [Example 63]
0.001 to 0.5	0.5 to 2	> 15	> 15	–	–	–	–	Cc1cc(C(C)Nc2ccccc2C(=O)O)c2cc(N3Cc4cccnc4C3)n(C)c(=O)c2c1 (stereo not shown) [Example 65]
–	–	–	–	0.001 to 0.5	0.5 to 2	> 15	> 15	Cc1cc(C(C)Nc2ccccc2C(=O)O)c2cc(N3Cc4cccc(C(F)(F)F)c4C3)n(C)c(=O)c2c1 (stereo not shown) [Example 67]
0.001 to 0.5	0.5 to 2	> 15	> 15	–	–	–	–	Cc1cc(C(C)Nc2ccccc2C(=O)O)c2cc(-c3ccc(C)nc3)n(C)c(=O)c2c1 (stereo not shown) [Example 68]
0.001 to 0.5	0.5 to 2	> 15	> 15	–	–	–	–	Cc1cc([C@@H](C)Nc2ccccc2C(=O)O)c2cc(N3C[C@H]4CN(CC(F)(F)F)C[C@H]4C3)n(C)c(=O)c2c1 [Example 73]
0.5 to 2	2 to 15	> 15	> 15	–	–	–	–	Cc1ccc(-c2cc3c(C(C)Nc4ccccc4C(=O)O)cc(C)cc3c(=O)n2C)nc1 (stereo not shown) [Example 74]
0.001 to 0.5	0.5 to 2	> 15	> 15	–	–	–	–	Cc1cc(C(C)Nc2ccccc2C(=O)O)c2cc(-c3cc4ccc(F)cc4[nH]3)n(C)c(=O)c2c1 (stereo not shown) [Example 75]
0.001 to 0.5	0.5 to 2	> 15	> 15	–	–	–	–	Cc1cc(C(C)Nc2ccccc2C(=O)O)c2cc(N3Cc4cc(F)cc(F)c4C3)n(C)c(=O)c2c1 (stereo not shown) [Example 84]
2 to 15	2 to 15	> 15	> 15	–	–	–	–	CC(=O)N1C[C@@H]2CN(c3cc4c(C(C)Nc5ccccc5C(=O)O)cc(C)cc4c(=O)n3C)C[C@H]2C1 (stereo partly shown) [Example 87]
–	–	–	–	0.001 to 0.5	0.001 to 0.5	> 15	2 to 15	Cc1cc(C(C)Nc2ccccc2C(=O)O)c2cc(N3CCC4(CCN(CC(F)(F)F)CC4)CC3)n(C)c(=O)c2c1 (stereo not shown) [Example 91]
0.5 to 2	0.5 to 2	> 15	> 15	–	–	–	–	COCCC(=O)N1CCN(c2cc3c(C(C)Nc4ccccc4C(=O)O)cc(C)cc3c(=O)n2C)CC1 (stereo not shown) [Example 95]
0.001 to 0.5	0.001 to 0.5	> 15	2 to 15	–	–	–	–	Cc1cc([C@@H](C)Nc2ccccc2C(=O)O)c2cc(N3CC[C@]4(CCCN(CC(F)(F)F)C4)C3)n(C)c(=O)c2c1 [Example 99]
0.001 to 0.5	0.5 to 2	> 15	> 15	–	–	–	–	Cc1cc([C@@H](C)Nc2ccccc2C(=O)O)c2cc(N3CC(c4ccccn4)C3)n(C)c(=O)c2c1 [Example 152]
0.001 to 0.5	0.001 to 0.5	> 15	> 15	–	–	–	–	Cc1cc([C@@H](C)Nc2ccccc2C(=O)O)c2cc(N3CCN(CC4OCCO4)CC3)n(C)c(=O)c2c1 [Example 157]

Second part, the compound before the results:

Compound	IC50 ([1]; Homo sapiens, T47D, 6 h) [µM]	EC50 ([2]; Homo sapiens, T47D, 72 h) [µM]	IC50 ([3]; Homo sapiens, SK-BR-3, 6 h) [µM]	EC50 ([4]; Homo sapiens, SK-BR-3, 72 h) [µM]	IC50 [1] [µM]	EC50 ([2]; 72 hours) [µM]	IC50 ([3]; 6 hours) [µM]	EC50 ([4]; 72 hours) [µM]
C[C@@H](Nc1ccccc1C(=O)O)c1cc(F)cc2c(=O)n(C)c(-c3cnc(Oc4cnn(C(F)F)c4)c(F)c3)cc12 [Example 48, (R)-2-((1-(3-(6-((1-(difluoromethyl)-1H-pyrazol-4-yl)oxy)-5-fluoropyridin-3-yl)-7-fluoro-2-methyl-1-oxo-1,2-dihydroisoquinolin-5-yl)ethyl)amino)benzoic acid]	0.001 to 0.5	0.5 to 2	> 15	> 15	–	–	–	–
Cc1cc(C(C)Nc2ccccc2C(=O)O)c2cc(N3CC4(CC(C(F)(F)F)C4)C3)n(C)c(=O)c2c1 (stereo not shown) [Example 57]	0.001 to 0.5	2 to 15	> 15	> 15	–	–	–	–
Cc1cc(C(C)Nc2ccccc2C(=O)O)c2cc(N3CCn4c(C)nnc4C3)n(C)c(=O)c2c1 (stereo not shown) [Example 58]	> 15	> 15	> 15	> 15	–	–	–	–
Cc1cc(C(C)Nc2ccccc2C(=O)O)c2cc(N3CCC4(CCCC4)CC3)n(C)c(=O)c2c1 (stereo not shown) [Example 62]	0.5 to 2	0.5 to 2	> 15	> 15	–	–	–	–
Cc1cc(C(C)Nc2ccccc2C(=O)O)c2cc(N3CC[C@H](c4ccccc4)C3)n(C)c(=O)c2c1 (stereo partly shown) [Example 64]	0.001 to 0.5	0.5 to 2	> 15	> 15	–	–	–	–
Cc1cc(C(C)Nc2ccccc2C(=O)O)c2cc(N3Cc4ccncc4C3)n(C)c(=O)c2c1 (stereo not shown) [Example 66]	0.001 to 0.5	0.001 to 0.5	> 15	> 15	–	–	–	–
Cc1cc(C(C)Nc2ccccc2C(=O)O)c2cc(N3C4CCCC3CC4)n(C)c(=O)c2c1 (stereo not shown) [Example 69]	0.001 to 0.5	0.5 to 2	> 15	> 15	–	–	–	–
Cc1cc(C(C)Nc2ccccc2C(=O)O)c2cc(N3C[C@@H]4[C@@H](C#N)[C@@H]4C3)n(C)c(=O)c2c1 (stereo partly shown) [Example 70]	0.5 to 2	0.5 to 2	> 15	> 15	–	–	–	–
Cc1cc(C(C)Nc2ccc(Cl)nc2C(=O)O)c2cc(N3Cc4ccc(F)cc4C3)n(C)c(=O)c2c1 (stereo not shown) [Example 71]	0.001 to 0.5	0.5 to 2	2 to 15	> 15	–	–	–	–
Cc1cc(C(C)Nc2ccccc2C(=O)O)c2cc(N3Cc4cncnc4C3)n(C)c(=O)c2c1 (stereo not shown) [Example 72]	0.5 to 2	2 to 15	> 15	> 15	–	–	–	–
Cc1cc(C(C)Nc2ccccc2C(=O)O)c2cc(N3CC4CCC(C4)C3)n(C)c(=O)c2c1 (stereo not shown) [Example 85]	0.001 to 0.5	0.001 to 0.5	2 to 15	> 15	–	–	–	–
Cc1cc(C(C)Nc2ccccc2C(=O)O)c2cc(N3CCc4ncncc4C3)n(C)c(=O)c2c1 (stereo not shown) [Example 86]	0.5 to 2	2 to 15	> 15	> 15	–	–	–	–
Cc1cc(C(C)Nc2ccc(Cl)nc2C(=O)O)c2cc(N3CCC(C)(C)CC3)n(C)c(=O)c2c1 (stereo not shown) [Example 88]	0.5 to 2	0.5 to 2	> 15	2 to 15	–	–	–	–
Cc1cc(C(C)Nc2ccccc2C(=O)O)c2cc(N3Cc4c(F)c(F)c(F)c(F)c4C3)n(C)c(=O)c2c1 (stereo not shown) [Example 89]	0.5 to 2	2 to 15	> 15	> 15	–	–	–	–
Cc1cc(C(C)Nc2ccccc2C(=O)O)c2cc(N3CCC4(CCN(CC(F)(F)F)C4)CC3)n(C)c(=O)c2c1 (stereo not shown) [Example 94]	0.001 to 0.5	0.001 to 0.5	2 to 15	2 to 15	–	–	–	–
Cc1cc([C@@H](C)Nc2ccccc2C(=O)O)c2cc(N3CC[C@@]4(CCCN(CC(F)(F)F)C4)C3)n(C)c(=O)c2c1 [Example 98]	0.001 to 0.5	0.5 to 2	> 15	> 15	–	–	–	–
Cc1cc(C(C)Nc2ccccc2C(=O)O)c2cc(N3CC4CCCC(C4)C3)n(C)c(=O)c2c1 (stereo not shown) [Example 116]	–	–	–	–	0.5 to 2	0.5 to 2	> 15	> 15
Cc1cc([C@@H](C)Nc2ccc(Cl)nc2C(=O)O)c2cc(-c3ccc(C)nc3)n(C)c(=O)c2c1 [Example 130]	0.001 to 0.5	0.001 to 0.5	2 to 15	2 to 15	–	–	–	–
Cc1cc(C(C)Nc2ccccc2C(=O)O)c2cc(N3CCN4CC(F)(F)C[C@@H]4C3)n(C)c(=O)c2c1 (stereo partly shown) [Example 140]	0.001 to 0.5	0.001 to 0.5	> 15	> 15	–	–	–	–
COc1cccc(N2CCN(c3cc4c([C@@H](C)Nc5ccccc5C(=O)O)cc(C)cc4c(=O)n3C)CC2)c1 [Example 147]	0.001 to 0.5	0.001 to 0.5	2 to 15	> 15	–	–	–	–
Cc1cc([C@@H](C)Nc2ccc(Cl)nc2C(=O)O)c2cc(N3CCN(C4COC4)CC3)n(C)c(=O)c2c1 [Example 148]	0.5 to 2	0.5 to 2	> 15	> 15	–	–	–	–
CON1CCN(c2cc3c([C@@H](C)Nc4ccccc4C(=O)O)cc(C)cc3c(=O)n2C)CC1 [Example 158]	0.001 to 0.5	0.001 to 0.5	> 15	> 15	–	–	–	–
